From patent publication US4246343A, “Microbial detection and enumeration method and apparatus” (University of Virginia and National Aeronautics & Space …, priority 1979, dated 1981)
Like-named read-outs stand apart in the source and are kept apart here.

Legend:
[1] = test system: S. epidermidis (clinical); assay: Electroanalytically determined MIC / antimicrobial response curve, gram-positive bacteria; type: cell-based, Staphylococcus epidermidis; conditions: for MIC: Staphylococcus epidermidis
Excerpt: (§1) Identical lots of media and antimicrobial agents were used in the susceptibility tests performed. The media used were trypticase soy agar (TSA) and TSB from Baltimore Biological Laboratories (BBL), Cockeysville, Maryland. The 12 antimicrobial agents used in the experiments, which were chosen on the basis of their clinical usefulness, were laboratory reference standards including the following antibiotics: penicillin G potassium, caphalothin sodium, tobramycin, vancomycin hydrochloride and streptomycin sulfate obtained from Eli Lilly and Co.; tetracycline and carbenicillin obtained from Pfizer Laboratories; ampicillin and sodium nafcillin from Wyeth Laboratories; kanamycin and methicillin from Bristol Laboratories; gentamicin from Schering.
(§2) The following cultures were obtained from Hoffmann-LaRoche, Inc. and were derived from the American Type Culture Collection (ATCC) organisms as indicated: Escherichia coli, "Seattle Strain" ATCC 25922, Klebsiella pneumoniae ATCC 27736; Pseudomonas aeruginosa, ATCC 9721. These bacteria are gram negative bacteria. The following bacteria are gram positive: Staphylococcus aureus, "Seattle Strain" ATCC 25923; Staphylococcus epiderdimis ATCC 14990; and Streptococcus pyogenes, ATCC 10389. In addition, clinical specimens of these same six organisms were obtained from sensitivity isolates from the University of Virginia Hospital Department of Clinical Pathology Bacteriology Section. These organisms, both pathogenic and non-pathogenic (Staphylococcus epidermidis), were chosen because they are some of the most frequently encountered organisms in clinical isolates.
(§3) Inocula were prepared by making a 100-fold dilution×2 of an overnight TSB culture of the organism to be tested in sterile TSB prewarmed to 35° C. Thus, the total dilution of overnight stock was 10^-4. From the 10^-4 series, 0.3 ml was transferred to a test tube (Falcon, disposable #2057) containing 2.7 ml of TSB if the growth control, or 2.6 ml of TSB plus 0.1 ml of a particular concentration of an appropriate antibiotic to be tested. The antibiotic was weighed on an analytical balance, according to each agent's activity standard, and diluted with sterile distilled water in a volumetric flask to achieve a stock solution of 1000 mcg/ml which was then frozen in small aliquots. Further dilutions as necessary for susceptibility testing were also achieved through the addition of sterile distilled water to this stock concentration. Viable counts were made by plating appropriate dilutions from the 10^-4 series on TSA and counting colonies after 24 hours incubation at 35° C. Viable counts were also made on each microorganism at the time of MDC and again at the end of the 24 hour test period to confirm the minimum inhibitory concentration (MIC).
(§4) The experimental apparatus used in this study to monitor the inhibition of growth due to the addition of antibiotics consisted of test tubes, up to and including 8, size 17×100 mm, each containing a sterilized (by boiling) Pt-SCE combination electrode (Sargent-Welch, S-30101-15), plus TSB, microorganisms, and antibiotic where appropriate, positioned in a 35° C. heating block. Leads from the electrode were connected to a high impedance (greater than 10^8 ohms) potentiometer, or voltage following device, which in turn was connected to a strip chart recorder (Hewlett-Packard type 680M). Microbial growth was measured by an increase in voltage in the negative direction with time as recorded on the strip chart recorder.
(§5) FIG. 12 is a stripchart recording of the antimicrobial response curve of a four channeled expriment involving a clinical specimen of the non-hydrogenproducing, Gram-positive bacteria Staphylococcus epidermidis treated with 0.012, 0.5 and 1.0 mcg/ml of the antibiotic ampicillin as shown in curves B, C and D respectively. […]

S. aureus (clinical) = assay: Electroanalytically determined MIC, gram-positive bacteria; type: cell-based; conditions: Staphylococcus aureus
Excerpt: as §1, §2, §3, §4, §5

P. aeruginosa (clinical) = assay: Electroanalytically determined MIC, gram-negative bacteria; type: cell-based, Pseudomonas aeruginosa; conditions: Pseudomonas aeruginosa
Excerpt: as §1, §2, §3, §4, §5

K. pneumoniae (ATCC) = assay: Electroanalytically determined MIC / antimicrobial response curve, gram-negative bacteria; type: cell-based, Klebsiella pneumoniae ATCC 27736; conditions: for MIC: Klebsiella pneumoniae
Excerpt: as §1, §2, §3, §4, §5

S. aureus (ATCC) = assay: Electroanalytically determined MIC, gram-positive bacteria; type: cell-based, "Seattle Strain" ATCC 25923; conditions: Staphylococcus aureus
Excerpt: as §1, §2, §3, §4, §5

E. coli (ATCC) = assay: Electroanalytically determined MIC, gram-negative bacteria; type: cell-based, Escherichia coli, "Seattle Strain" ATCC 25922; conditions: Escherichia coli
Excerpt: as §1, §2, §3, §4, §5

E. coli (clinical) = assay: as above; type: cell-based, Escherichia coli; conditions: Escherichia coli
Excerpt: as §1, §2, §3, §4, §5

S. epidermidis (ATCC) = assay: Electroanalytically determined MIC, gram-positive bacteria; type: cell-based, Staphylococcus epiderdimis ATCC 14990; conditions: Staphylococcus epidermidis
Excerpt: as §1, §2, §3, §4, §5

P. aeruginosa (ATCC) = assay: Electroanalytically determined MIC, gram-negative bacteria; type: cell-based, Pseudomonas aeruginosa, ATCC 9721; conditions: Pseudomonas aeruginosa
Excerpt: as §1, §2, §3, §4, §5

K. pneumoniae (clinical) = assay: as above; type: cell-based, Klebsiella pneumoniae; conditions: Klebsiella pneumoniae
Excerpt: as §1, §2, §3
as §4, with “recorder. […]” for “recorder.”

[2] = S. epidermidis (clinical), TSB, 35° C., 24 hour test period, read-out: MIC
[3] = S. aureus (clinical), TSB, 35° C., 24 hour test period, read-out: MIC
[4] = K. pneumoniae (ATCC), TSB, 35° C., 24 hour test period, read-out: MIC
[5] = S. aureus (ATCC), TSB, 35° C., 24 hour test period, read-out: MIC
[6] = E. coli (ATCC), TSB, 35° C., 24 hour test period, read-out: MIC
[7] = E. coli (clinical), TSB, 35° C., 24 hour test period, read-out: MIC
[8] = S. epidermidis (ATCC), TSB, 35° C., 24 hour test period, read-out: MIC

| Structure (SMILES) | MIC [1, 2] [µg/mL] | MIC (S. aureus (clinical); [3]) [µg/mL] | MIC (P. aeruginosa (clinical); 24 h) [µg/mL] | MIC (K. pneumoniae (ATCC); [4]) [µg/mL] | MIC (S. aureus (ATCC); [5]) [µg/mL] | MIC (E. coli (ATCC); [6]) [µg/mL] | MIC (E. coli (clinical); [7]) [µg/mL] | MIC (S. epidermidis (ATCC); [8]) [µg/mL] | MIC (P. aeruginosa (ATCC); 24 h) [µg/mL] | MIC ([1]; 24 h) [µg/mL] | MIC (S. aureus (clinical); 24 h) [µg/mL] | MIC (K. pneumoniae (ATCC); 24 h) [µg/mL] | MIC (S. aureus (ATCC); 24 h) [µg/mL] | MIC (E. coli (ATCC); 24 h) [µg/mL] | MIC (E. coli (clinical); 24 h) [µg/mL] | MIC (S. epidermidis (ATCC); 24 h) [µg/mL] | also measured |
| --- | --- | --- | --- | --- | --- | --- | --- | --- | --- | --- | --- | --- | --- | --- | --- | --- | --- |
| CC1(C)S[C@@H]2[C@H](NC(=O)[C@H](N)c3ccccc3)C(=O)N2[C@H]1C(=O)O [Amp, ampicillin] | 0.8 to 1 | 0.12 | > 128 | 32 | 0.12 to 0.6 | 4 | 6 | 1 | > 128 | – | – | – | – | – | – | – | growth inhibition (antimicrobial response curve, FIG. 12) ([1]; S. epidermidis clinical specimen, 0.012, 0.5 and 1.0 mcg/ml): increasingly inhibited |
| CC1(C)S[C@@H]2[C@H](NC(=O)C(C(=O)O)c3ccccc3)C(=O)N2[C@H]1C(=O)O (some centres unmarked) [Carb, carbenicillin] | – | – | – | > 128 | – | 4 | 5 | – | – | – | – | – | – | – | – | – | MIC (P. aeruginosa (clinical); P. aeruginosa (clinical), TSB, 35° C., 24 hour test period, read-out: MIC): 64 µg/mL; MIC (P. aeruginosa (ATCC); P. aeruginosa (ATCC), TSB, 35° C., 24 hour test period, read-out: MIC): 64 µg/mL; MIC (K. pneumoniae (clinical); K. pneumoniae (clinical), TSB, 35° C., 24 hour test period, read-out: MIC): > 128 µg/mL |
| CC(=O)OCC1=C(C(=O)O)N2C(=O)[C@@H](NC(=O)Cc3cccs3)[C@H]2SC1 [Ceph, cephalothin] | – | – | > 360 | – | – | – | – | – | > 360 | 0.5 to 1 | 0.8 to 1.6 | 1 | 0.15 to 0.2 | 8 | 9 | 0.1 | growth inhibition (antimicrobial response curve, FIG. 13) (K. pneumoniae (ATCC); K. pneumoniae ATCC, 0.3, 0.4, 0.5, 1.0 and 2.0 mcg/ml): increasingly inhibited |
| NC[C@H]1O[C@H](O[C@H]2[C@H](O)[C@@H](O[C@H]3O[C@H](CO)[C@@H](O)[C@H](N)[C@H]3O)[C@H](N)C[C@@H]2N)[C@H](O)[C@@H](O)[C@@H]1O [Kana, kanamycin] | – | – | 64 | – | – | – | – | – | 32 to 64 | 0.6 | 0.5 to 1 | 3 | 0.2 | 3 | 4 | 0.4 | MIC (K. pneumoniae (clinical); 24 h): 4 µg/mL |
| COc1cccc(OC)c1C(=O)N[C@@H]1C(=O)N2[C@@H]1SC(C)(C)[C@@H]2C(=O)O [Meth, methicillin] | 0.5 to 1 | 0.7 | – | – | 0.7 | – | – | 0.5 to 1 | – | – | – | – | – | – | – | – | – |
| CCOc1ccc2ccccc2c1C(=O)N[C@@H]1C(=O)N2[C@@H]1SC(C)(C)[C@@H]2C(=O)O [Naf, sodium nafcillin] | 0.5 to 1 | 0.5 | – | – | 0.5 | – | – | 0.5 to 1 | – | – | – | – | – | – | – | – | – |
